Data: ChEMBL document CHEMBL5634163, “Anti-Ferroptotic Effect of Cannabidiol in Human Skin Keratinocytes Characterized by Data-Independent Acquisition-Based Proteomics” (J Nat Prod, 2024)
Active and inactive are the calls of the source. The rule behind the calls is not given here.

How the values were obtained:
HaCaT [1] = assay: Anti-ferroptotic effect against erastin-induced cytotoxicity in human HaCaT cells assessed as cell viability at 10 uM preincubated for 4 hrs followed by erastin addition measured after 24 hrs by MTT assay relative to control; type: functional; details: for Activity: time 28.0 hrs; for viability at 10 µM: time 28 hrs, read-out: Activity
[2] = Antioxidant activity assessed as free radical scavenging activity incubated for 30 mins in dark by DPPH assay; type: functional
[3] = Iron-chelating activity of compound at 500 uM incubated for 10 mins by absorbance based assay relative to control; type: functional
HaCaT [4] = assay: Reversal of erastin-induced iron level in human HaCaT cells at 10 uM preincubated for 24 hrs followed by erastin addition measured after 24 hrs by FerroOrange probe based assay (reference value: 43 %); type: functional; details: time 48 hrs
HaCaT [5] = assay: Suppression of erastin-induced intracellular Fe2+ level in human HaCaT cells at 10 uM preincubated for 24 hrs followed by erastin addition measured after 24 hrs by FerroOrange probe based assay (reference value: 25 %); type: functional; details: time 48 hrs
HaCaT [6] = assay: Reversal of erastin-induced lipid peroxidation in human HaCaT cells at 10 uM preincubated for 4 hrs followed by erastin addition measured after 24 hrs by flow cytometry (reference value: 47 %); type: functional; details: time 28 hrs
HaCaT [7] = assay: Reversal of erastin-induced ROS level in human HaCaT cells at 10 uM preincubated for 24.5 hrs followed by erastin addition measured after 4 hrs by DC-FDA probe based assay (reference value: 23 %); type: functional; details: time 28.5 hrs
HaCaT [8] = assay: Reversal of erastin-induced ROS level in human HaCaT cells at 0.6 uM preincubated for 24.5 hrs followed by erastin addition measured after 4 hrs by DC-FDA probe based assay (reference value: 23 %); type: functional; details: time 28.5 hrs
HaCaT [9] = assay: Reversal of erastin-induced FXR2 level in human HaCaT cells; type: functional, cell-based
HaCaT [10] = assay: Anti-ferroptotic effect against erastin-induced cytotoxicity in human HaCaT cells assessed as cell viability at 10 uM preincubated for 4 hrs followed by erastin addition measured after 24 hrs by MTT assay (reference value: 23 %); type: functional; details: time 28 hrs, read-out: Activity
HaCaT [11] = assay: Reversal of erastin-induced lipid peroxidation in human HaCaT cells at 0.6 uM preincubated for 4 hrs followed by erastin addition measured after 24 hrs by flow cytometry (reference value: 47 %); type: functional; details: time 28 hrs
HaCaT [12] = assay: Anti-ferroptotic effect against erastin-induced cytotoxicity in human HaCaT cells assessed as cell viability at 1.25 uM preincubated for 4 hrs followed by erastin addition measured after 24 hrs by MTT assay (reference value: 23 %); type: functional; details: time 28 hrs, read-out: Activity
HaCaT [13] = assay: Reversal of erastin-reduced CSNK2B level in human HaCaT cells; type: functional, cell-based
HaCaT [14] = assay: Reversal of erastin-reduced LGALS3 level in human HaCaT cells; type: functional, cell-based
HaCaT [15] = assay: Reversal of erastin-induced LIG3 level in human HaCaT cells; type: functional, cell-based
HaCaT [16] = assay: Suppression of erastin-induced intracellular Fe2+ level in human HaCaT cells at 0.6 uM preincubated for 24 hrs followed by erastin addition measured after 24 hrs by FerroOrange probe based assay (reference value: 25 %); type: functional; details: time 48 hrs
HaCaT [17] = assay: Effect on GSH level in human HaCaT cells at 2.5 uM; type: functional, cell-based
HaCaT [18] = assay: Anti-ferroptotic effect against erastin-induced cytotoxicity in human HaCaT cells assessed as cell viability at 0.63 uM preincubated for 4 hrs followed by erastin addition measured after 24 hrs by MTT assay (reference value: 23 %); type: functional; details: time 28 hrs, read-out: Activity
HaCaT [19] = assay: Reversal of erastin-induced ROS level in human HaCaT cells at 2.5 uM preincubated for 24.5 hrs followed by erastin addition measured after 4 hrs by DC-FDA probe based assay (reference value: 23 %); type: functional; details: time 28.5 hrs
HaCaT [20] = assay: Reversal of erastin-induced iron level in human HaCaT cells at 2.5 uM preincubated for 24 hrs followed by erastin addition measured after 24 hrs by FerroOrange probe based assay (reference value: 43 %); type: functional; details: time 48 hrs
HaCaT [21] = assay: Suppression of erastin-induced intracellular Fe2+ level in human HaCaT cells at 2.5 uM preincubated for 24 hrs followed by erastin addition measured after 24 hrs by FerroOrange probe based assay (reference value: 25 %); type: functional; details: time 48 hrs
HaCaT [22] = assay: Anti-ferroptotic effect against erastin-induced cytotoxicity in human HaCaT cells assessed as cell viability at 2.5 uM preincubated for 4 hrs followed by erastin addition measured after 24 hrs by MTT assay (reference value: 23 %); type: functional; details: time 28 hrs, read-out: Activity
HaCaT [23] = assay: Anti-ferroptotic effect against erastin-induced cytotoxicity in human HaCaT cells assessed as cell viability at 0.08 uM preincubated for 4 hrs followed by erastin addition measured after 24 hrs by MTT assay (reference value: 23 %); type: functional; details: time 28 hrs, read-out: Activity
HaCaT [24] = assay: Reversal of erastin-reduced RPL7A level in human HaCaT cells; type: functional, cell-based
HaCaT [25] = assay: Anti-ferroptotic effect against erastin-induced cytotoxicity in human HaCaT cells assessed as cell viability at 5 uM preincubated for 4 hrs followed by erastin addition measured after 24 hrs by MTT assay (reference value: 23 %); type: functional; details: time 28 hrs, read-out: Activity
HaCaT [26] = assay: Anti-ferroptotic effect against erastin-induced cytotoxicity in human HaCaT cells assessed as cell viability at 0.16 uM preincubated for 4 hrs followed by erastin addition measured after 24 hrs by MTT assay (reference value: 23 %); type: functional; details: time 28 hrs, read-out: Activity
HaCaT [27] = assay: Reversal of erastin-induced DDX60 level in human HaCaT cells; type: functional, cell-based
HaCaT [28] = assay: Reversal of erastin-induced lipid peroxidation in human HaCaT cells at 2.5 uM preincubated for 4 hrs followed by erastin addition measured after 24 hrs by flow cytometry (reference value: 47 %); type: functional; details: time 28 hrs
HaCaT [29] = assay: Anti-ferroptotic effect against erastin-induced cytotoxicity in human HaCaT cells assessed as cell viability at 0.31 uM preincubated for 4 hrs followed by erastin addition measured after 24 hrs by MTT assay (reference value: 23 %); type: functional; details: time 28 hrs, read-out: Activity
[30] = Antioxidant activity assessed as free radical scavenging activity at 100 uM incubated for 30 mins in dark by DPPH assay relative to control; type: functional

Compound: O=C1O[C@H]([C@@H](O)CO)C(O)=C1O [ASCORBIC ACID]
- Activity (HaCaT [1]): inactive
- IC50 [2]: 15.9 µM
- Activity [3]: < 5%

Compound: O=c1c(O)c(-c2ccc(O)c(O)c2)oc2cc(O)ccc12 [FISETIN]
- viability at 10 µM (HaCaT [1]): 37%
- Activity (HaCaT [4]): 14%
- IC50 [2]: 10.1 µM
- Activity (HaCaT [5]): 32%
- Activity [3]: 60%
- Activity (HaCaT [6]): 40%
- Activity (HaCaT [7]): 11%

Compound: C=C(C)[C@@H]1CCC(C)=C[C@H]1c1c(O)cc(CCCCC)cc1O [CANNABIDIOL]
- Activity (HaCaT [8]): 10%
- Activity (HaCaT [9]): Active
- viability at 10 µM (HaCaT [10]): 68%
- Activity (HaCaT [11]): 39%
- viability at 1.25 µM (HaCaT [12]): 67%
- Activity (HaCaT [13]): Active
- Activity (HaCaT [14]): Active
- Activity (HaCaT [15]): Active
- Activity (HaCaT [16]): 10%
- viability at 10 µM (HaCaT [1]): 76%
- Activity (HaCaT [17]): inactive
- Activity (HaCaT [4]): 17%
- IC50 [2]: 33.3 µM
- viability at 0.63 µM (HaCaT [18]): 52%
- Activity (HaCaT [19]): 14%
- Activity (HaCaT [20]): 15%
- Activity (HaCaT [21]): 12%
- viability at 2.5 µM (HaCaT [22]): 74%
- viability at 0.08 µM (HaCaT [23]): 29%
- Activity (HaCaT [24]): Active
- viability at 5 µM (HaCaT [25]): 71%
- viability at 0.16 µM (HaCaT [26]): 36%
- Activity (HaCaT [27]): Active
- Activity (HaCaT [28]): 44%
- viability at 0.31 µM (HaCaT [29]): 45%
- Activity [3]: < 5%
- Activity (HaCaT [6]): 40%
- Activity (HaCaT [7]): 26%

Compound: CCOC(=O)c1ccc(NC2CCCCC2)c(N)c1
- viability at 10 µM (HaCaT [10]): 66%

Compound: CC1=C(/C=C/C(C)=C/C=C/C(C)=C/CO)C(C)(C)CCC1
- Activity [30]: 18%
- Activity (HaCaT [1]): inactive
- Activity [3]: 87%
